Assay results reported in ChEMBL document CHEMBL1201862, “PubChem BioAssay data set” (2004).
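96-well plates; 48 h exposure; 5 concentrations. Endpoints by linear interpolation between flanking doses. Not reached: highest tested concentration assigned. GI50 is the concentration that inhibits growth by half.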 Active and inactive are the calls of the source. Cut-off read from the data, not from the text of the source: active = GI50 up to about 1.1 µM and inactive = higher.

Experiments:
Assay in all cases: inhibition of tumour cell growth, NCI panel, 48 h
M14 = test system: M14
MDA-MB-231 = test system: MDA-MB-231
IGROV-1 = test system: IGROV-1
UACC-62 = test system: UACC-62
OVCAR-4 = test system: OVCAR-4
SNB-75 = test system: SNB-75
DU-145 = test system: DU-145
UO-31 = test system: UO-31
NCI-H460 = test system: NCI-H460
K562 = test system: K562
NCI-H23 = test system: NCI-H23
T47D = test system: T47D
SK-OV-3 = test system: SK-OV-3
COLO 205 = test system: COLO 205
MDA-N = test system: MDA-N
A498 = test system: A498
SNB-19 = test system: SNB-19
SF-268 = test system: SF-268
OVCAR-8 = test system: OVCAR-8
LOX IMVI = test system: LOX IMVI

SMILES	GI50 (M14)	GI50 (MDA-MB-231)	GI50 (IGROV-1)	GI50 (UACC-62)	GI50 (OVCAR-4)	GI50 (SNB-75)	GI50 (DU-145)	GI50 (UO-31)	GI50 (NCI-H460)	GI50 (K562)	GI50 (NCI-H23)	GI50 (T47D)	GI50 (SK-OV-3)	GI50 (COLO 205)	GI50 (MDA-N)	GI50 (A498)	GI50 (SNB-19)	GI50 (SF-268)	GI50 (OVCAR-8)	GI50 (LOX IMVI)
COc1cc(-c2ccc(Nc3ccccc3C(=O)O)c(OC)c2)ccc1Nc1ccccc1C(=O)O	26.5 µM (inactive)	13.7 µM (inactive)	21 µM (inactive)	1.46 µM (inactive)	28.2 µM (inactive)	30.2 µM (inactive)	8.65 µM (inactive)	13.6 µM (inactive)	1.94 µM (inactive)	1.35 µM (inactive)	18.3 µM (inactive)	11.2 µM (inactive)	23.4 µM (inactive)	48.3 µM (inactive)	10 µM (inactive)	> 47.2 µM (inactive)	10.2 µM (inactive)	11.4 µM (inactive)	8.95 µM (inactive)	1.28 µM (inactive)
Clc1nc(Cl)c(-c2ccccc2)c(Cl)n1	1.62 µM (inactive)	3.24 µM (inactive)	4.92 µM (inactive)	3.09 µM (inactive)	2.51 µM (inactive)	0.64 µM (active)	13.5 µM (inactive)	4.61 µM (inactive)	13.4 µM (inactive)	2.9 µM (inactive)	4.51 µM (inactive)	2.59 µM (inactive)	11.2 µM (inactive)	1.84 µM (inactive)	2.49 µM (inactive)	16.2 µM (inactive)	14.5 µM (inactive)	3.19 µM (inactive)	2.75 µM (inactive)	1.66 µM (inactive)
CC[C@@]1(O)C(=O)OCc2c1c(Cl)c1n(c2=O)Cc2cc3ccccc3nc2-1	2 µM (inactive)	61 µM (inactive)	4.08 µM (inactive)	0.528 µM (active)	8.97 µM (inactive)	1.84 µM (inactive)	1.92 µM (inactive)	1.26 µM (inactive)	0.383 µM (active)	2.1 µM (inactive)	2.05 µM (inactive)	1.31 µM (inactive)	4.24 µM (inactive)	5.52 µM (inactive)	7.24 µM (inactive)	2.18 µM (inactive)	2.36 µM (inactive)	1.31 µM (inactive)	3.05 µM (inactive)	1.16 µM (inactive)
CC(C)(C)OC(=O)NCCCCC(N)C(N)=O (stereo not given)	> 100 µM (inactive)	> 100 µM (inactive)	> 100 µM (inactive)	7.46 µM (inactive)	> 100 µM (inactive)	> 100 µM (inactive)	> 100 µM (inactive)	> 100 µM (inactive)	> 100 µM (inactive)	> 100 µM (inactive)	> 100 µM (inactive)	> 100 µM (inactive)	54.7 µM (inactive)	> 100 µM (inactive)	> 100 µM (inactive)	> 100 µM (inactive)	> 100 µM (inactive)	> 100 µM (inactive)	> 100 µM (inactive)	> 100 µM (inactive)
C=CCN(c1cc(OC)c(NC(C)=O)cc1[N+](=O)[O-])S(C)(=O)=O	> 100 µM (inactive)	> 100 µM (inactive)	> 100 µM (inactive)	> 100 µM (inactive)	> 100 µM (inactive)	> 100 µM (inactive)	> 100 µM (inactive)	> 100 µM (inactive)	> 100 µM (inactive)	> 100 µM (inactive)	> 100 µM (inactive)	> 100 µM (inactive)	> 100 µM (inactive)	> 100 µM (inactive)	> 100 µM (inactive)	> 100 µM (inactive)	> 100 µM (inactive)	> 100 µM (inactive)	> 100 µM (inactive)	> 100 µM (inactive)
COc1cccc2c(=O)oc(-c3ccc(C(C)(C)C)cc3)nc12	82 µM (inactive)	58.1 µM (inactive)	45.1 µM (inactive)	> 100 µM (inactive)	53.6 µM (inactive)	23.9 µM (inactive)	> 100 µM (inactive)	> 100 µM (inactive)	65.8 µM (inactive)	> 100 µM (inactive)	> 100 µM (inactive)	80.4 µM (inactive)	80.9 µM (inactive)	57 µM (inactive)	76.7 µM (inactive)	> 100 µM (inactive)	> 100 µM (inactive)	84.9 µM (inactive)	39.7 µM (inactive)	22.5 µM (inactive)
Cc1ccc2c(c1)C1(C)OC(C=CC1=O)O2 (stereo not given)	0.316 µM (active)	0.564 µM (active)	2.18 µM (inactive)	0.839 µM (active)	0.774 µM (active)	1.68 µM (inactive)	2.72 µM (inactive)	1.14 µM (inactive)	2.21 µM (inactive)	0.147 µM (active)	0.94 µM (active)	0.705 µM (active)	3.24 µM (inactive)	0.384 µM (active)	0.18 µM (active)	3.89 µM (inactive)	2.75 µM (inactive)	1.41 µM (inactive)	0.282 µM (active)	0.573 µM (active)
